Positions count from the first letter of the chain named.
What was measured:
ALK2 [1] = molecular target: T1, ALK2 (Homo sapiens, UniProt Q04771); assay: TR-FRET enzymatic ALK kinase assay, ALK2
T1 sequence (Q04771 21-509): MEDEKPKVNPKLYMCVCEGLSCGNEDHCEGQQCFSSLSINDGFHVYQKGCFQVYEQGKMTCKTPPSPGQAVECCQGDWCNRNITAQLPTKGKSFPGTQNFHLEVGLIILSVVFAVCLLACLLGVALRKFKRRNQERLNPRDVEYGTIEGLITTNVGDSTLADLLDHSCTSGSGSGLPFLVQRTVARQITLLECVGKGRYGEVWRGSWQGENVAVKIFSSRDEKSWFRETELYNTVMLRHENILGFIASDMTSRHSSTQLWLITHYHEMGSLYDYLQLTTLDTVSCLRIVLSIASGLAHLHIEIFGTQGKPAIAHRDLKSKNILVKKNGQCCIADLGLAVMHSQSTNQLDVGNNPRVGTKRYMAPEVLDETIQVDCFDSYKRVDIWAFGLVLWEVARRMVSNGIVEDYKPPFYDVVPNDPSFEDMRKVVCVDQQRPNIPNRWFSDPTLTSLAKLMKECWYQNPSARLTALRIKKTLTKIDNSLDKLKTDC
Method: (§1) Briefly, the ALKs enzymatic assay was initiated by dispense 2.5 μl enzyme in 1× kinase reaction buffer. The assay plate was then added with compounds followed by incubation at room temperature for 10 minutes. Then 2.5 μl/well substrate was added.

ALK2 [2] = molecular target: T2, ALK2 (Mus musculus, UniProt P37172); assay: HTRF pSMAD1 cell-based ALK2 assay (C2C12 cells, BMP6 as agonist); details: cell-based assay, BMP6; read-out: Cell IC50 BMP6
T2 construct: The C2C12 cell line was selected for the measurement of ALK2 activity using BMP6 as the agonist; host or cells: C2C12
T2 sequence (P37172 21-509): T1 sequence (Q04771 21-509) with M1V, P10Q, L121I, D162E, P310S
Method: 2. HTRF Cell-Based ALK1 and ALK2 Assays in 384-Well Plate Format We have developed a cell based ALK1 kinase assay and a cell-based ALK2 assay. The BAOEC cell line was employed for the measurement of ALK1 activity using BMP9 as the agonist. The C2C12 cell line was selected for the measurement of ALK2 activity using BMP6 as the agonist. The kinase specificity was defined by the specific cell line and agonist. The kinase activity was determined by the status of SMD 1/5/8 phosphorylation stimulated by the agonist.
HyClone Fetal Bovine Serum was obtained from GE healthcare life sciences (Logan, Utah). BMP6 and BMP9 were purchased from R&D System. […] The compound plates and the white solid MB assay plates were purchased from Greiner Bio-one (Monroe, N.C.).
HTRF optimization experiments were performed in 384 well plate format. […] Pre-starved cells were then plated in 384 well plate in the starvation medium (containing in 0.1% FBS). After 4 hours, compounds were added to the assay plate and incubated for 30 minutes. The assay plate was then added with BMP6 for C2C12 cells or BMP9 for BAOEC cells and incubated for 30 minutes.
HTRF assay was performed to measure the status of SMAD 1 phosphorylation after stimulated with the agonist (Table 3). This HTRF phospho SMAD1 cell assay was developed and optimized for the homogenous detection of phospho SMAD 1 levels in cells. […] The plate was incubated at room temperature for overnight.

ALK3 = ALK3 (Homo sapiens, UniProt P36894); assay: TR-FRET enzymatic ALK kinase assay, ALK3
Chain of ALK3 (P36894 24-532): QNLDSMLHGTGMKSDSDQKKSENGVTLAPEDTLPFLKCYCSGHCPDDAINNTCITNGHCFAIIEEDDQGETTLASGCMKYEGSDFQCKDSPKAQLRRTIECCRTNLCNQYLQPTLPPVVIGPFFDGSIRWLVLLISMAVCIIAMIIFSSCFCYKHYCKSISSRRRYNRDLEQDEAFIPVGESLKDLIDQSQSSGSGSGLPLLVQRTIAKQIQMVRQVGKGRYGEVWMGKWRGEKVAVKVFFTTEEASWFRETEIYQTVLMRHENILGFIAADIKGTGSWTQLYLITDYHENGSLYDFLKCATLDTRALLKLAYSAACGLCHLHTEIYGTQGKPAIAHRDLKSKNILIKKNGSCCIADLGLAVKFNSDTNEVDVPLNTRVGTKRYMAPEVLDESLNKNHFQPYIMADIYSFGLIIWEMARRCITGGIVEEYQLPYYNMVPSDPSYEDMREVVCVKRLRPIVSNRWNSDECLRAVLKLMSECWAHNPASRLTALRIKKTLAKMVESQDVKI
Method: as §1

ALK6 = ALK6 (Homo sapiens, UniProt O00238); assay: TR-FRET enzymatic ALK kinase assay, ALK6
Chain of ALK6 (O00238 14-502): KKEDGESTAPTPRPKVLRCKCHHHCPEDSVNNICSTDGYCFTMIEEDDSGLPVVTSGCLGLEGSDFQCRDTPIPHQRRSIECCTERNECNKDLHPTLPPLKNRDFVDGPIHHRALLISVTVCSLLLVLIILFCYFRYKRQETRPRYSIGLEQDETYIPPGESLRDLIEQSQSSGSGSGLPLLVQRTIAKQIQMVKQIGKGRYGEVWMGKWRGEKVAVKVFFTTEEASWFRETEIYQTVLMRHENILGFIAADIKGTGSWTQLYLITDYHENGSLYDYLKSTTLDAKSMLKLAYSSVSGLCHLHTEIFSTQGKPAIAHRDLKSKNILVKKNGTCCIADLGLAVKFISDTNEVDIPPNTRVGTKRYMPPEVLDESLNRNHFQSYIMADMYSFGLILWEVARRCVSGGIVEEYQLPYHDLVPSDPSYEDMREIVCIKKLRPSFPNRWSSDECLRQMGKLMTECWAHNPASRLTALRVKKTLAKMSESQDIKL
Method: as §1

ALK1 = ALK1 (Homo sapiens, UniProt P37023); assay: TR-FRET enzymatic ALK kinase assay, ALK1
Chain of ALK1 (P37023 22-503): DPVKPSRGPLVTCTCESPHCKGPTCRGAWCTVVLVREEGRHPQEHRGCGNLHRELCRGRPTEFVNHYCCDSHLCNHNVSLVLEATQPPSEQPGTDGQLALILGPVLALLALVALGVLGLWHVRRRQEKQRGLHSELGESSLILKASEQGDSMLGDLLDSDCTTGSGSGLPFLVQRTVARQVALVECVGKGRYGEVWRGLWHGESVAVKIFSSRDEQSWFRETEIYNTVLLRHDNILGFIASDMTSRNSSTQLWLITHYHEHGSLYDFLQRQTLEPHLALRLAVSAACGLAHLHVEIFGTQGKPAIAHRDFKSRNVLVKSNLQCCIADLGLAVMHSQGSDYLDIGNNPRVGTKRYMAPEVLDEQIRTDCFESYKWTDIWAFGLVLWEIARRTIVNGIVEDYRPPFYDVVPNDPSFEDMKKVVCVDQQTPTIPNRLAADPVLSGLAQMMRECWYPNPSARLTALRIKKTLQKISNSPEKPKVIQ
Method: as §1

ALK5 = molecular target: T3, ALK5 (Homo sapiens, UniProt P36897); assay: TR-FRET enzymatic ALK kinase assay, ALK5
T3 sequence (P36897 34-503): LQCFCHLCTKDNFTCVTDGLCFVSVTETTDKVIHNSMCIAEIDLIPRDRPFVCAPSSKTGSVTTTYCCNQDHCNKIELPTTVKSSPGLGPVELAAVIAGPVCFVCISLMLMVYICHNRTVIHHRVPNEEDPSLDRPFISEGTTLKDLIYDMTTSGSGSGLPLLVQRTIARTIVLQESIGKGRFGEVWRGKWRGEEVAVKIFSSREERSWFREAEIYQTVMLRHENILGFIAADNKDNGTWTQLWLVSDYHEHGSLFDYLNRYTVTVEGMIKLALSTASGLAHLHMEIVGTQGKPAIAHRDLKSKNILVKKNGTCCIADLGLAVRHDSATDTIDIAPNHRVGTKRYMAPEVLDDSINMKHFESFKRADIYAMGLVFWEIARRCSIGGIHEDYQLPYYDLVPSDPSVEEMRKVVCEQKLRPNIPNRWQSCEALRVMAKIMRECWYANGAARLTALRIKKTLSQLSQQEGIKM
Method: Six ALK kinase enzyme assays were developed for determination of compound activities on ALK1, ALK2, ALK3, ALK4, ALK5 and ALK6.
as §1

ALK4 = molecular target: T4, ALK4 (Homo sapiens, UniProt P36896); assay: TR-FRET enzymatic ALK kinase assay, ALK4
T4 sequence (P36896 24-505): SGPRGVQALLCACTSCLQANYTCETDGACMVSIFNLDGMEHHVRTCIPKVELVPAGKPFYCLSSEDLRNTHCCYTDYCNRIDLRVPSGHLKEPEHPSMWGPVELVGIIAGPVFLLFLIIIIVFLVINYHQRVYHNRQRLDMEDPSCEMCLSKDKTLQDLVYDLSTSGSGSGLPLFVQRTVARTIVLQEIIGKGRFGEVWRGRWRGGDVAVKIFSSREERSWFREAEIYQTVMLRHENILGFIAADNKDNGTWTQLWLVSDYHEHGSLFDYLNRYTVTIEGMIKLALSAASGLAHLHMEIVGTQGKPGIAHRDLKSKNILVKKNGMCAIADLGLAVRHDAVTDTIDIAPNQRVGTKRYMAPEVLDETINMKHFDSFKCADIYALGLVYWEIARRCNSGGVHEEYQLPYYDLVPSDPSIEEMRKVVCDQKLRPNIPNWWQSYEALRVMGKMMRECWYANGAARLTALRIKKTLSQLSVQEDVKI
Method: as §1

Row | Structure (SMILES) | IC50 (ALK2 [1]) [µM] | IC50 (ALK2 [2]) [µM] | IC50 (ALK3) [µM] | IC50 (ALK6) [µM] | IC50 (ALK1) [µM] | IC50 (ALK5) [µM] | IC50 (ALK4) [µM]
1 | Cc1ccc(-c2cnn3cc(-c4ccc(N5[C@H](C)CNC[C@@H]5C)cc4)cnc23)cc1S(N)(=O)=O [Compound 55, 5-(6-(4-((2R,6S)-2,6-dimethylpiperazin-1-yl)phenyl)pyrazolo[1,5-a]pyrimidin-3-yl)-2-methylbenzenesulfonamide] | 0.19 | 4.73 | > 10 | > 10 | 0.8 | > 10 | > 10
2 | NS(=O)(=O)c1ccc(-c2cnn3cc(-c4ccc(C5(O)CCNCC5)nc4)cnc23)c2ccccc12 [Compound 56, 4-(6-(6-(4-hydroxypiperidin-4-yl)pyridin-3-yl)pyrazolo[1,5-a]pyrimidin-3-yl)naphthalene-1-sulfonamide] | 0.35 | 60 | > 10 | > 10 | 0.9 | > 10 | > 10
3 | CN(C)CCOc1ccc(-c2cnc3c(-c4ccc(S(N)(=O)=O)c5ccccc45)cnn3c2)cc1 [Compound 61, 4-(6-(4-(2-(dimethylamino)ethoxy)phenyl)pyrazolo[1,5-a]pyrimidin-3-yl)naphthalene-1-sulfonamide] | 0.11 | 2.2 | > 10 | > 10 | 0.47 | > 10 | > 10
4 | CN1CCN(c2ccc(-c3cnc4c(-c5ccc(S(N)(=O)=O)c6ccccc56)cnn4c3)cc2)CC1 [Compound 62, 4-(6-(4-(4-methylpiperazin-1-yl)phenyl)pyrazolo[1,5-a]pyrimidin-3-yl)naphthalene-1-sulfonamide] | 0.074 | 3 | > 10 | > 10 | 0.14 | > 10 | > 10
5 | CN(C)CCc1ccc(-c2cnc3c(-c4ccc(S(N)(=O)=O)c5ccccc45)cnn3c2)cc1 [Compound 68, 4-(6-(4-(2-(dimethylamino)ethyl)phenyl)pyrazolo[1,5-a]pyrimidin-3-yl)naphthalene-1-sulfonamide] | 0.2 | 0.95 | > 10 | > 10 | 0.68 | > 10 | > 10
6 | C[C@@H]1CNC[C@H](C)N1c1ccc(-c2cnc3c(-c4cccc(C#N)c4)cnn3c2)cc1 [Compound 69, 3-(6-(4-((2R,6S)-2,6-dimethylpiperazin-1-yl)phenyl)pyrazolo[1,5-a]pyrimidin-3-yl)benzonitrile] | 0.14 | 2.25 | > 10 | > 10 | 0.93 | > 10 | > 10
7 | C[C@@H]1CNC[C@H](C)N1c1ccc(-c2cnc3c(-c4ccc(CS(N)(=O)=O)cc4)cnn3c2)cc1 [Compound 71, (4-(6-(4-((2R,6S)-2,6-dimethylpiperazin-1-yl)phenyl)pyrazolo[1,5-a]pyrimidin-3-yl)phenyl)methanesulfonamide] | 5.1 | 22 | > 10 | > 10 | > 10 | > 10 | > 10

These reach a lower IC50 (ALK2 [1]). Values come first.

Row | IC50 (ALK2 [1]) [µM] | IC50 (ALK2 [2]) [µM] | IC50 (ALK3) [µM] | IC50 (ALK6) [µM] | IC50 (ALK1) [µM] | IC50 (ALK5) [µM] | IC50 (ALK4) [µM] | Structure (SMILES)
8 | 0.036 | 0.09 | 0.37 | 0.95 | 0.073 | > 10 | 6.1 | C[C@@H]1CNC[C@H](C)N1c1ccc(-c2cnc3c(-c4cc(N)cc5ccccc45)cnn3c2)cc1 [Compound 58, 4-(6-(4-((2R,6S)-2,6-dimethylpiperazin-1-yl)phenyl)pyrazolo[1,5-a]pyrimidin-3-yl)naphthalen-2-amine]
9 | 0.043 | 0.284 | 0.9 | 2.5 | 0.14 | > 10 | 4.1 | C[C@@H]1CNC[C@H](C)N1c1ccc(-c2cnc3c(-c4ccc(N)c5ccccc45)cnn3c2)cc1 [Compound 59, 4-(6-(4-((2R,6S)-2,6-dimethylpiperazin-1-yl)phenyl)pyrazolo[1,5-a]pyrimidin-3-yl)naphthalen-1-amine]
10 | 0.068 | 10 | > 10 | > 10 | 0.18 | > 10 | > 10 | NS(=O)(=O)c1ccc(-c2cnn3cc(-c4ccc(C5(O)CCNCC5)cc4)cnc23)c2ccccc12 [Compound 66, 4-(6-(4-(4-hydroxypiperidin-4-yl)phenyl)pyrazolo[1,5-a]pyrimidin-3-yl)naphthalene-1-sulfonamide]
11 | 0.033 | 0.155 | 0.31 | 2.1 | 0.083 | 8.4 | 2.6 | C[C@@H]1CNC[C@H](C)N1c1ccc(-c2cnc3c(-c4cccc(C(N)=O)c4)cnn3c2)cc1 [Compound 67, 3-(6-(4-((2R,6S)-2,6-dimethylpiperazin-1-yl)phenyl)pyrazolo[1,5-a]pyrimidin-3-yl)benzamide]
12 | 0.066 | 1.2 | 2.8 | > 10 | 0.28 | > 10 | > 10 | C[C@@H]1CNC[C@H](C)N1c1ccc(-c2cnc3c(-c4cccc(CCO)c4)cnn3c2)cc1 [Compound 70, 2-(3-(6-(4-((2R,6S)-2,6-dimethylpiperazin-1-yl)phenyl)pyrazolo[1,5-a]pyrimidin-3-yl)phenyl)ethanol]

Reference: patent publication US10513521B2, “Compositions and methods for inhibiting BMP” (The Brigham and Women's Hospital, Inc., priority 2014, dated 2019)
